Values after ≈ are worked out from the molar mass of the structure shown. Where two headings read alike, the source gives them in different places.
Experiments:
S. aureus ATCC 12598 = assay: Antibacterial activity, pre-exposure; assay type: cell-based, Staphylococcus aureus; conditions: for Average inhibition %, biofilms viability / Average inhibition %, planktonic cells viability / inhibition at 5 µM / inhibition at 10 µM / inhibition at 15 µM / inhibition at 25 µM: S. aureus ATCC 12598, pre-exposure, ± SD; for inhibition at 5 µM / inhibition at 10 µM / inhibition at 15 µM / inhibition at 25 µM / MIC: Staphylococcus aureus, ATCC12598; for MIC: pre-exposure, 18 h, read-out: MIC S. aureus ATCC 12598
Method: (§1) The antimicrobial activity was assessed in a similar way for the initial screening and the dose–response evaluation against different bacterial strains. With the exception of the post-exposure experiment, the compounds were added to the wells along with the bacteria to test the ability of compounds to prevent bacterial growth and biofilm formation (pre-exposure). The compounds were diluted in DMSO and plated directly in 96-well plates before adding the bacterial culture, and plates were incubated for 18 h under aerobic conditions at 37 °C with shaking (220 rpm). The antibacterial activity of the compounds was assessed on planktonic cells and biofilms separately using two different measurements for each: optical density (turbidity) and resazurin reduction (viability) on planktonic cells and resazurin followed by a crystal violet staining assay (total biomass) on biofilms, as described in the following sections.
(§2) The resazurin staining was performed according to the protocol previously optimized with a few modifications.[46] Briefly, the planktonic solution was first transferred into a new 96-well plate and the OD of the planktonic solution was measured using a Varioskan LUX Multimode microplate reader (Thermo Scientific, Vantaa, Finland). Then, 10 μL of a 400 μM resazurin (R7017, Sigma-Aldrich, St. Louis, MO) diluted in phosphate-buffered saline (PBS) (Thermo Fisher Scientific, MA) was added to the wells (for a final resazurin concentration of 20 μM). The plate was incubated in the dark with shaking (220 rpm) for about 3–10 min at room temperature with S. aureus and A. baumannii (until the bacteria controls turned pink) or for 20 min at 37 °C with P. aeruginosa. Fluorescence was measured at λex = 560 nm and λem = 590 nm using the top optics of the Varioskan LUX Multimode microplate reader. The planktonic plate was then discarded. The original challenge plate containing the biofilms was washed once with PBS, and 200 μL of a 20 μM resazurin solution was added to the wells. The plate was incubated in the dark at 37 °C with shaking (220 rpm) for 30 min with S. aureus, 60 min with A. baumannii, and 90 min with P. aeruginosa. Fluorescence was measured as described for the planktonic solution. The biofilms were next treated with crystal violet staining.
(§3) After removing the resazurin solution from the plate, biofilms were fixed with ethanol 100% for 15 min at room temperature. Ethanol was then removed, and the biofilms were left to air-dry completely at RT. Crystal violet, diluted to 1:100 in deionized water from the 2.3% commercial solution (HT90132, Sigma-Aldrich, St. Louis, MO), was added to the wells and, after a 5 min incubation with the dye, the biofilms were washed twice with deionized water and left to air-dry for about 10 min. The dye was solubilized in ethanol 100% for 1 h, and absorbance was measured at 595 nm using a Multiskan Sky microplate spectrophotometer (Thermo Scientific, Vantaa, Finland).

S. aureus P2 = assay: Antibacterial activity, pre-exposure; assay type: cell-based, Staphylococcus aureus; conditions: for Average inhibition %, biofilms viability / Average inhibition %, planktonic cells viability / inhibition at 5 µM / inhibition at 10 µM / inhibition at 15 µM / inhibition at 25 µM: S. aureus P2, pre-exposure, ± SD; for MIC / inhibition at 5 µM / inhibition at 10 µM / inhibition at 15 µM / inhibition at 25 µM: Staphylococcus aureus; for MIC: P2, pre-exposure, 18 h
Method: as §1, §2, §3

[1] = 5 µM, read-out: Average inhibition %, biofilms biomass
[2] = 5 µM, read-out: Average inhibition %, planktonic cells turbidity
[3] = 10 µM, read-out: Average inhibition %, biofilms biomass
[4] = 10 µM, read-out: Average inhibition %, planktonic cells turbidity
[5] = 15 µM, read-out: Average inhibition %, biofilms biomass
[6] = 15 µM, read-out: Average inhibition %, planktonic cells turbidity
[7] = 25 µM, read-out: Average inhibition %, biofilms biomass
[8] = 25 µM, read-out: Average inhibition %, planktonic cells turbidity

| SMILES | Average inhibition %, biofilms viability (S. aureus ATCC 12598; 5 µM) [%] | Average inhibition %, planktonic cells viability (S. aureus ATCC 12598; 5 µM) [%] | Average inhibition %, biofilms viability (S. aureus ATCC 12598; 10 µM) [%] | Average inhibition %, planktonic cells viability (S. aureus ATCC 12598; 10 µM) [%] | Average inhibition %, biofilms viability (S. aureus ATCC 12598; 15 µM) [%] | Average inhibition %, planktonic cells viability (S. aureus ATCC 12598; 15 µM) [%] | Average inhibition %, biofilms viability (S. aureus ATCC 12598; 25 µM) [%] | Average inhibition %, planktonic cells viability (S. aureus ATCC 12598; 25 µM) [%] | inhibition at 5 µM (S. aureus ATCC 12598; [1]) [%] | inhibition at 5 µM (S. aureus ATCC 12598; [2]) [%] | inhibition at 10 µM (S. aureus ATCC 12598; [3]) [%] | inhibition at 10 µM (S. aureus ATCC 12598; [4]) [%] | inhibition at 15 µM (S. aureus ATCC 12598; [5]) [%] | inhibition at 15 µM (S. aureus ATCC 12598; [6]) [%] | inhibition at 25 µM (S. aureus ATCC 12598; [7]) [%] | inhibition at 25 µM (S. aureus ATCC 12598; [8]) [%] | MIC (S. aureus ATCC 12598) [µM] | Average inhibition %, biofilms viability (S. aureus P2; 5 µM) [%] | Average inhibition %, planktonic cells viability (S. aureus P2; 5 µM) [%] | Average inhibition %, biofilms viability (S. aureus P2; 10 µM) [%] | other results |
| --- | --- | --- | --- | --- | --- | --- | --- | --- | --- | --- | --- | --- | --- | --- | --- | --- | --- | --- | --- | --- | --- |
| CCCCCCCCc1ccc2nc(CCC(N)(CO)CO)ccc2c1 [Compound 80, 2-Amino-2-[2-(6-octylquinolin-2-yl)ethyl]propane-1,3-diol] | 24.6 ± 6.8 | 7.3 ± 12.6 | 99.2 ± 0.3 | 99.7 ± 0 | 99.5 ± 0.1 | 99.6 ± 0 | 99.5 ± 0.2 | 99.6 ± 0 | 34.3 ± 18.8 | 22.7 ± 5.4 | 96.5 ± 1 | 99.6 | 93.4 ± 1.2 | 99.5 ± 0.1 | 89.4 ± 0.6 | 98.9 ± 0.3 | 10 (≈ 3.59 µg/mL) | 45.2 ± 2.1 | 20.6 ± 21.6 | 99.5 ± 0.1 | Average inhibition %, planktonic cells viability (S. aureus P2; 10 µM): 99.7 ± 0.2%; Average inhibition %, biofilms viability (S. aureus P2; 15 µM): 99.5 ± 0%; Average inhibition %, planktonic cells viability (S. aureus P2; 15 µM): 99.6 ± 0.1%; Average inhibition %, biofilms viability (S. aureus P2; 25 µM): 99.5 ± 0%; Average inhibition %, planktonic cells viability (S. aureus P2; 25 µM): 99.5 ± 0.1%; MIC (S. aureus P2): 10 µM (≈ 3.59 µg/mL); inhibition at 5 µM (S. aureus P2; [1]): 57.3 ± 10.2%; inhibition at 5 µM (S. aureus P2; [2]): 3.3 ± 5.4%; inhibition at 10 µM (S. aureus P2; [3]): 95.4 ± 2.9%; inhibition at 10 µM (S. aureus P2; [4]): 99.6 ± 0.1%; inhibition at 15 µM (S. aureus P2; [5]): 95.3 ± 0.8%; inhibition at 15 µM (S. aureus P2; [6]): 99.3%; inhibition at 25 µM (S. aureus P2; [7]): 90.6 ± 1%; inhibition at 25 µM (S. aureus P2; [8]): 98.8 ± 0.2% |
| CCCCCCCCCCc1ccc2nc(CC(N)(CO)CO)ccc2c1 [Compound 83, 2-Amino-2-[(6-decylquinolin-2-yl)methyl]propane-1,3-diol] | – | – | – | – | – | – | – | – | – | – | – | – | – | – | – | – | 10 (≈ 3.73 µg/mL) | – | – | – | MIC (S. aureus P2): 10 µM (≈ 3.73 µg/mL) |
| CCCCCCCCCCc1ccc2nc(CCC(N)(CO)CO)ccc2c1 [Compound 81, 2-Amino-2-[2-(6-decylquinolin-2-yl)ethyl]propane-1,3-diol] | 15.6 ± 9.7 | 4.2 ± 7.3 | 99.4 ± 0 | 99.7 ± 0 | 99.7 ± 0.1 | 99.8 ± 0.1 | 99.7 ± 0.1 | 99.6 ± 0.1 | 19.1 ± 26.4 | 2.1 ± 3.7 | 96 ± 0.6 | 99.8 ± 0.1 | 93.5 ± 1.8 | 99.7 ± 0.1 | 88.7 ± 2 | 99.3 ± 0.2 | – | 37.3 ± 3.3 | 42.9 ± 19.7 | 99.6 ± 0.1 | Average inhibition %, planktonic cells viability (S. aureus P2; 10 µM): 99.6 ± 0.2%; Average inhibition %, biofilms viability (S. aureus P2; 15 µM): 99.6 ± 0%; Average inhibition %, planktonic cells viability (S. aureus P2; 15 µM): 99.6 ± 0.1%; Average inhibition %, biofilms viability (S. aureus P2; 25 µM): 99.6 ± 0%; Average inhibition %, planktonic cells viability (S. aureus P2; 25 µM): 99.6 ± 0.2%; inhibition at 5 µM (S. aureus P2; [1]): 48.4 ± 15.7%; inhibition at 5 µM (S. aureus P2; [2]): 0%; inhibition at 10 µM (S. aureus P2; [3]): 96.6 ± 0.4%; inhibition at 10 µM (S. aureus P2; [4]): 99.8 ± 0.1%; inhibition at 15 µM (S. aureus P2; [5]): 94.5 ± 0.6%; inhibition at 15 µM (S. aureus P2; [6]): 99.7 ± 0.1%; inhibition at 25 µM (S. aureus P2; [7]): 89.1 ± 0.6%; inhibition at 25 µM (S. aureus P2; [8]): 99.2 ± 0.2% |

From publication PMC8296573, “Synthesis and Biological Evaluation of Fingolimod Derivatives as Antibacterial Agents” (ACS Omega, 2021)
